Values quoted from earlier work as cited in patent US12576017B2, “Sunscreen composition with enhanced photoprotection” (Edgewell Personal Care Brands, LLC, priority 2021, dated 2026).

Conditions: lipid/water partition

Row | SMILES | Log P @25° C.
1 | CCCCC(CC)COC(=O)C=Cc1ccc(OC)cc1 (stereo not shown) [Octyl methoxy cinnamate, Ethylhexyl-p-methoxy cinnamate] | 5.65
2 | CCOCCOC(=O)/C=C/c1ccc(OC)cc1 [Cinoxate, Ethoxyethyl methoxy cinnamate] | 2.55
3 | CCCCC(CC)COC(=O)c1ccccc1O (stereo not shown) [Octyl salicylate, 2-Ethylhexyl salicylate] | 5.30
4 | CCCCC(CC)COC(=O)c1ccc(N(C)C)cc1 (stereo not shown) [Octyl dimethyl PABA, 2-Ethylhexyl-p-dimethyl aminobenzoate] | 6.08
5 | COc1ccc(C(=O)c2ccccc2)c(O)c1 [Benzophenone-3, 2-hydroxy-4-methoxybenzophenone] | 2.63
6 | CC1CC(OC(=O)c2ccccc2O)CC(C)(C)C1 (stereo not shown) [Homosalate, Homomenthyl salicylate] | 5.61
7 | Nc1ccc(C(=O)OCC(O)CO)cc1 (stereo not shown) [Glyceryl PABA, 1,2,3-Propanetriol,1-(4-aminobenzoate)] | −0.02
8 | COc1cc(O)c(C(=O)c2ccccc2)cc1S(=O)(=O)O [Benzophenone-4, 2-hydroxy-4-methoxybenzophenone-5-sulfonic acid] | −1.51
9 | Nc1ccc(C(=O)O)cc1 [PABA, p-Amino benzoic acid] | 0.74
10 | CCOC(=O)c1ccc(N(CC(C)O)CC(C)O)cc1 (stereo not shown) [Ethyl dihydroxypropyl PABA, Ethyl-4-bis(2-hydroxypropyl-aminobenzoate)] | 2.84
11 | CCCCC(CC)COC(=O)C(C#N)=C(c1ccccc1)c1ccccc1 (stereo not shown) [Octocrylene, Octyl cyanodiphenylacrylate] | 5.69
12 | CC1CCC(C(C)C)C(OC(=O)c2ccccc2N)C1 (stereo not shown) [Menthyl anthranilate, Menthyl-O aminobenzoate] | 5.05
13 | COc1ccc(C(=O)c2ccccc2O)c(O)c1 [Benzophenone-8, 2,2′-dihydroxy-4-methoxybenzophenone] | 2.15
